The values that follow are results of earlier work, collected in US20210169075A1, “ANTIBIOFILM FORMULATIONS AND METHODS FOR MICROBIAL DECONTAMINATION” (priority 2019, published 2021).

For this data set the following is noted: aqueous.

In brackets after ≈: the same amount, converted by molar mass.

`C=CC(=C)CCC=C(C)C` [Myrcene, myrcene]: the solubility concentration was 4.09 µg/mL (≈ 30 µM).
